Tested on: MV-4-11 cells
Assay: Gene expression microarray analysis (Affymetrix PrimeView) and GSEA
Assay type: cell-based, human
Design: RFU PODN (11730768_x_at) / Fold change /veh PODN (11730768_x_at) / RFU LINC00158 (11744669_a_at) / Fold change /veh LINC00158 (11744669_a_at) / RFU DUSP10 (11751237_a_at) / Fold change /veh DUSP10 (11751237_a_at) / RFU ID3 (11757404_x_at) / Fold change /veh ID3 (11757404_x_at) / RFU PLEKHG5 (11737974_s_at) / Fold change /veh PLEKHG5 (11737974_s_at) / RFU LRRC4B (11730491_at) / Fold change /veh LRRC4B (11730491_at) / RFU GIMAP4 (11747438_a_at) / Fold change /veh GIMAP4 (11747438_a_at) / RFU KRT8 (11758183_x_at) / Fold change /veh KRT8 (11758183_x_at) / RFU CNN1 (11734310_a_at) / Fold change /veh CNN1 (11734310_a_at) / RFU VPS37D (11726825_at) / Fold change /veh VPS37D (11726825_at) / RFU C10orf10 (11716522_x_at) / Fold change /veh C10orf10 (11716522_x_at) / RFU KIR2DL2 /// KIR2DL4 /// KIR2DL5A /// KIR2DL5B /// KIR2DS1 /// KIR2DS2 /// KIR2DS3 /// KIR2DS4 /// KIR3DL3 /// KIR3DL3 /// KIR3DS1 (11738374_at) / Fold change /veh KIR2DL2 /// KIR2DL4 /// KIR2DL5A /// KIR2DL5B /// KIR2DS1 /// KIR2DS2 /// KIR2DS3 /// KIR2DS4 /// KIR3DL3 /// KIR3DL3 /// KIR3DS1 (11738374_at) / RFU C1QL1 (11718748_at) / Fold change /veh C1QL1 (11718748_at) / RFU TMPRSS4 (11747572_a_at) / Fold change /veh TMPRSS4 (11747572_a_at) / RFU HAMP (11756126_x_at) / Fold change /veh HAMP (11756126_x_at) / RFU RNFT2 (11725882_a_at) / Fold change /veh RNFT2 (11725882_a_at) / RFU NR4A2 (11747474_a_at) / Fold change /veh NR4A2 (11747474_a_at) / RFU ABCC12 (11746883_a_at) / Fold change /veh ABCC12 (11746883_a_at) / RFU TMEM136 (11760407_x_at) / Fold change /veh TMEM136 (11760407_x_at) / RFU CLDN22 /// WWC2 (11732394_at) / Fold change /veh CLDN22 /// WWC2 (11732394_at) / RFU HLA-DPB1 (11760878_x_at) / Fold change /veh HLA-DPB1 (11760878_x_at) / RFU SPINT1 (11716480_a_at) / Fold change /veh SPINT1 (11716480_a_at) / RFU GAP43 (11754022_s_at) / Fold change /veh GAP43 (11754022_s_at) / RFU A4GNT (11735810_at) / Fold change /veh A4GNT (11735810_at) / RFU PRB3 (11715151_x_at) / Fold change /veh PRB3 (11715151_x_at) / RFU TUBB4B (11761932_at) / Fold change /veh TUBB4B (11761932_at) / RFU CAPN14 (11732068_a_at) / Fold change /veh CAPN14 (11732068_a_at) / RFU TMCC2 (11721928_a_at) / Fold change /veh TMCC2 (11721928_a_at) / RFU IRGQ (11745062_a_at) / Fold change /veh IRGQ (11745062_a_at) / RFU FAM174B (11720279_a_at) / Fold change /veh FAM174B (11720279_a_at) / RFU TMPRSS4 (11748680_a_at) / Fold change /veh TMPRSS4 (11748680_a_at) / RFU FAM212B (11763350_a_at) / Fold change /veh FAM212B (11763350_a_at) / RFU PLEKHG5 (11743358_a_at) / Fold change /veh PLEKHG5 (11743358_a_at) / RFU ZSCAN30 (11745921_a_at) / Fold change /veh ZSCAN30 (11745921_a_at) / RFU CMKLR1 (11741424_a_at) / Fold change /veh CMKLR1 (11741424_a_at) / RFU LOC101060620 /// MAPK8IP1 (11723275_at) / Fold change /veh LOC101060620 /// MAPK8IP1 (11723275_at) / RFU SPTSSB (11747773_x_at) / Fold change /veh SPTSSB (11747773_x_at) / RFU PRSS12 (11739890_at) / Fold change /veh PRSS12 (11739890_at) / RFU BIN1 (11741810_x_at) / Fold change /veh BIN1 (11741810_x_at) / RFU WNT11 (11732464_a_at) / Fold change /veh WNT11 (11732464_a_at) / RFU C10orf10 (11716521_a_at) / Fold change /veh C10orf10 (11716521_a_at) / RFU C5orf56 (11738089_at) / Fold change /veh C5orf56 (11738089_at) / RFU CYB561 (11721691_x_at) / Fold change /veh CYB561 (11721691_x_at) / RFU ANKRD19P (11752326_a_at) / Fold change /veh ANKRD19P (11752326_a_at) / RFU OR2T12 /// OR2T33 /// OR2T8 (11738714_s_at) / Fold change /veh OR2T12 /// OR2T33 /// OR2T8 (11738714_s_at) / RFU VCAN (11748164_a_at) / Fold change /veh VCAN (11748164_a_at) / RFU JSRP1 (11732532_at) / Fold change /veh JSRP1 (11732532_at) / RFU KRTAP10-11 (11738290_x_at) / Fold change /veh KRTAP10-11 (11738290_x_at) / RFU MYO3A (11730013_a_at) / Fold change /veh MYO3A (11730013_a_at) / RFU EBF3 (11725865_a_at) / Fold change /veh EBF3 (11725865_a_at) / RFU CAMK2N1 (11719241_x_at) / Fold change /veh CAMK2N1 (11719241_x_at) / RFU C5orf56 (11738088_a_at) / Fold change /veh C5orf56 (11738088_a_at) / RFU OLFML3 (11715873_a_at) / Fold change /veh OLFML3 (11715873_a_at) / RFU LOC100653217 /// NTM (11731650_a_at) / Fold change /veh LOC100653217 /// NTM (11731650_a_at) / RFU MAPK11 (11762145_a_at) / Fold change /veh MAPK11 (11762145_a_at) / RFU FIZ1 (11724087_x_at) / Fold change /veh FIZ1 (11724087_x_at) / RFU OASL (11726364_x_at) / Fold change /veh OASL (11726364_x_at) / RFU SOX15 (11748057_x_at) / Fold change /veh SOX15 (11748057_x_at) / RFU CD79A (11719716_a_at) / Fold change /veh CD79A (11719716_a_at) / RFU HIST1H1D (11736915_at) / Fold change /veh HIST1H1D (11736915_at) / RFU CASKIN2 (11723855_a_at) / Fold change /veh CASKIN2 (11723855_a_at) / RFU LOC730098 (11760151_x_at) / Fold change /veh LOC730098 (11760151_x_at) / RFU OR4N2 (11742367_at) / Fold change /veh OR4N2 (11742367_at) / RFU PRRT2 (11749266_a_at) / Fold change /veh PRRT2 (11749266_a_at) / RFU SNX32 (11753110_a_at) / Fold change /veh SNX32 (11753110_a_at) / RFU CDHR5 (11726645_a_at) / Fold change /veh CDHR5 (11726645_a_at) / RFU RCAN1 (11760418_a_at) / Fold change /veh RCAN1 (11760418_a_at) / RFU FAM167A (11723789_a_at) / Fold change /veh FAM167A (11723789_a_at) / RFU FAM26E (11764081_at) / Fold change /veh FAM26E (11764081_at) / RFU ISYNA1 (11749810_s_at) / Fold change /veh ISYNA1 (11749810_s_at) / RFU ACY1 (11761880_at) / Fold change /veh ACY1 (11761880_at) / RFU 11764098_at / Fold change /veh 11764098_at / RFU SAMD14 (11745864_x_at) / Fold change /veh SAMD14 (11745864_x_at) / RFU NPB (11741838_a_at) / Fold change /veh NPB (11741838_a_at) / RFU TMPRSS6 (11731388_a_at) / Fold change /veh TMPRSS6 (11731388_a_at) / RFU KRTAP10-2 (11738614_at) / Fold change /veh KRTAP10-2 (11738614_at) / RFU ARHGAP8 /// PRR5-ARHGAP8 (11727945_x_at) / Fold change /veh ARHGAP8 /// PRR5-ARHGAP8 (11727945_x_at) / RFU KRTAP5-7 /// NADSYN1 (11734609_at) / Fold change /veh KRTAP5-7 /// NADSYN1 (11734609_at) / RFU RASL12 (11751679_a_at) / Fold change /veh RASL12 (11751679_a_at) / RFU CDKN2B (11736163_a_at) / Fold change /veh CDKN2B (11736163_a_at) / RFU PRF1 (11729649_at) / Fold change /veh PRF1 (11729649_at) / RFU, ZNF638 /// ZNF638-IT1 / Fold change vs veh, ZNF638 /// ZNF638-IT1 / RFU, PANK3 / Fold change vs veh, PANK3 / RFU, SH3YL1 / Fold change vs veh, SH3YL1 / RFU, ZEB2 / Fold change vs veh, ZEB2 / RFU, NRIP1 / Fold change vs veh, NRIP1 / RFU, PTTG1IP / Fold change vs veh, PTTG1IP / RFU, CAPN2 / Fold change vs veh, CAPN2 / RFU, MED14 / Fold change vs veh, MED14 / RFU, SNORA58 / Fold change vs veh, SNORA58 / RFU, C1orf63 / Fold change vs veh, C1orf63 / RFU, LRRFIP1 / Fold change vs veh, LRRFIP1 / RFU, NDUFAF7 / Fold change vs veh, NDUFAF7 / RFU, SLC12A2 / Fold change vs veh, SLC12A2 / RFU, IBTK / Fold change vs veh, IBTK / RFU, ESF1 / Fold change vs veh, ESF1 / Fold change vs veh, TMEM50B / RFU, TAOK1 / Fold change vs veh, TAOK1 / RFU, ACBD3 / Fold change vs veh, ACBD3 / RFU, TMA16 / Fold change vs veh, TMA16 / RFU, RWDD3 / Fold change vs veh, RWDD3 / RFU, BCAT1 / Fold change vs veh, BCAT1 / RFU, EDEM3 / Fold change vs veh, EDEM3 / RFU, TMEM33 / Fold change vs veh, TMEM33 / RFU, WDR75 / Fold change vs veh, WDR75 / RFU, AHCTF1 / Fold change vs veh, AHCTF1 / RFU, TFRC / Fold change vs veh, TFRC / RFU, ZDHHC17 / Fold change vs veh, ZDHHC17 / RFU, NOM1 / Fold change vs veh, NOM1 / RFU, ARL8B / Fold change vs veh, ARL8B / RFU, ZBTB11 / Fold change vs veh, ZBTB11 / RFU, TAMM41 / Fold change vs veh, TAMM41 / RFU, KIAA1704 /// LOC100996395 / Fold change vs veh, KIAA1704 /// LOC100996395 / RFU, ING1 / Fold change vs veh, ING1 / RFU, TRMT61B / Fold change vs veh, TRMT61B / RFU, FUBP3 / Fold change vs veh, FUBP3 / RFU, TP53 / Fold change vs veh, TP53 / RFU, TNKS2 / Fold change vs veh, TNKS2 / RFU, ZFP14 / Fold change vs veh, ZFP14 / RFU, ACTR2 / Fold change vs veh, ACTR2 / RFU, PPP3R1 / Fold change vs veh, PPP3R1 / RFU, PIK3R1 / Fold change vs veh, PIK3R1 / RFU, HNRNPA1 / Fold change vs veh, HNRNPA1 / RFU, RNF170 / Fold change vs veh, RNF170 / RFU, ZNF28 / Fold change vs veh, ZNF28 / RFU, RNGTT / Fold change vs veh, RNGTT / RFU, OGT / Fold change vs veh, OGT / RFU, BRD1 / Fold change vs veh, BRD1 / RFU, MARS / Fold change vs veh, MARS / RFU, ZNF655 / Fold change vs veh, ZNF655 / RFU, FAHD1 / Fold change vs veh, FAHD1 / RFU, BDP1 / Fold change vs veh, BDP1 / RFU, LRRCC1 / Fold change vs veh, LRRCC1 / RFU, ARID1A / Fold change vs veh, ARID1A / RFU, ZNF146 / Fold change vs veh, ZNF146 / RFU, ZNF330 / Fold change vs veh, ZNF330 / RFU, GPN3 / Fold change vs veh, GPN3 / RFU, C9orf123 / Fold change vs veh, C9orf123 / RFU, N4BP2L2 / Fold change vs veh, N4BP2L2 / RFU, ARFIP1 / Fold change vs veh, ARFIP1 / RFU, FAM179B / Fold change vs veh, FAM179B / RFU, BCL10 / Fold change vs veh, BCL10 / RFU, UHRF1BP1L / Fold change vs veh, UHRF1BP1L / RFU, BET1 / Fold change vs veh, BET1 / RFU, CNOT2 / Fold change vs veh, CNOT2 / RFU, ZNF268 / Fold change vs veh, ZNF268 / Fold change vs veh, ZNF507 / RFU, DGCR2 / Fold change vs veh, DGCR2 / RFU, WDSUB1 / Fold change vs veh, WDSUB1 / Fold change vs veh, HSP90B1 /// MIR3652 / RFU, ADSS / Fold change vs veh, ADSS / RFU, GK / Fold change vs veh, GK / RFU, ZNF148 / Fold change vs veh, ZNF148 / RFU, TAF9 / Fold change vs veh, TAF9 / RFU, SLC1A5 / Fold change vs veh, SLC1A5 / RFU, SLMO2 / Fold change vs veh, SLMO2 / RFU, ABCC4 / Fold change vs veh, ABCC4 / RFU, LOC101060439 /// RAP1B / Fold change vs veh, LOC101060439 /// RAP1B / RFU, RFX7 / Fold change vs veh, RFX7 / RFU, GTPBP10 / Fold change vs veh, GTPBP10 / RFU, CNEP1R1 / Fold change vs veh, CNEP1R1 / RFU, BIVM-ERCC5 /// ERCC5 / Fold change vs veh, BIVM-ERCC5 /// ERCC5 / RFU, ILF3 / Fold change vs veh, ILF3 / RFU 11762660_at / Fold change /veh 11762660_at / RFU VCAN (11757783_s_at) / Fold change /veh VCAN (11757783_s_at) / RFU DDX43 (11728927_at) / Fold change /veh DDX43 (11728927_at) / RFU KRT8 (11758188_x_at) / Fold change /veh KRT8 (11758188_x_at) / RFU NKD1 (11759106_at) / Fold change /veh NKD1 (11759106_at) / RFU SRD5A1 (11742802_a_at) / Fold change /veh SRD5A1 (11742802_a_at) / RFU TPSAB1 /// TPSB2 (11721975_s_at) / Fold change /veh TPSAB1 /// TPSB2 (11721975_s_at) / RFU GSTM3 (11746129_a_at) / Fold change /veh GSTM3 (11746129_a_at) / RFU IL23R (11737362_x_at) / Fold change /veh IL23R (11737362_x_at) / RFU TMEM51 (11727254_a_at) / Fold change /veh TMEM51 (11727254_a_at) / RFU PIWIL2 (11732686_x_at) / Fold change /veh PIWIL2 (11732686_x_at) / RFU ORM1 (11744905_x_at) / Fold change /veh ORM1 (11744905_x_at) / RFU CCDC152 (11743942_at) / Fold change /veh CCDC152 (11743942_at) / RFU ECM1 (11717891_a_at) / Fold change /veh ECM1 (11717891_a_at) / RFU IL23R (11748794_a_at) / Fold change /veh IL23R (11748794_a_at) / RFU TNFAIP8L3 (11732012_x_at) / Fold change /veh TNFAIP8L3 (11732012_x_at) / RFU MBOAT4 (11741988_at) / Fold change /veh MBOAT4 (11741988_at) / RFU 11764193_at / Fold change /veh 11764193_at / RFU TMEM53 (11763286_at) / Fold change /veh TMEM53 (11763286_at) / RFU MAGEB2 (11727129_at) / Fold change /veh MAGEB2 (11727129_at) / RFU TMEM200A (11744735_a_at) / Fold change /veh TMEM200A (11744735_a_at) / RFU CCDC152 (11751479_a_at) / Fold change /veh CCDC152 (11751479_a_at) / RFU FAM211A (11726209_a_at) / Fold change /veh FAM211A (11726209_a_at) / RFU RGS16 (11746705_a_at) / Fold change /veh RGS16 (11746705_a_at) / RFU VCAN (11755009_s_at) / Fold change /veh VCAN (11755009_s_at) / RFU RHOB (11743442_s_at) / Fold change /veh RHOB (11743442_s_at) / RFU RGS16 (11720943_a_at) / Fold change /veh RGS16 (11720943_a_at) / RFU RGS16 (11720944_at) / Fold change /veh RGS16 (11720944_at) / RFU, VPS4B / Fold change vs veh, VPS4B / RFU, CREB1 / Fold change vs veh, CREB1 / RFU, DNAJC13 / Fold change vs veh, DNAJC13 / RFU, GNAQ / Fold change vs veh, GNAQ / RFU, CDK5R1 / Fold change vs veh, CDK5R1 / RFU, ZRANB3 / Fold change vs veh, ZRANB3 / RFU, CUL4A / Fold change vs veh, CUL4A / RFU, CCNY / Fold change vs veh, CCNY / RFU, UFL1 / Fold change vs veh, UFL1 / RFU, COG3 / Fold change vs veh, COG3 / RFU, DIAPH2 / Fold change vs veh, DIAPH2 / RFU, SKA2 / Fold change vs veh, SKA2 / RFU, AFF3 / Fold change vs veh, AFF3 / RFU, LMF1 / Fold change vs veh, LMF1 / RFU, IPO11 / Fold change vs veh, IPO11 / RFU, DFFB / Fold change vs veh, DFFB / RFU, FOXP1 / Fold change vs veh, FOXP1 / RFU, CARD8 / Fold change vs veh, CARD8 / RFU, STRN3 / Fold change vs veh, STRN3 / RFU, ADK / Fold change vs veh, ADK / RFU, RASSF2 / Fold change vs veh, RASSF2 / RFU, WIPF1 / Fold change vs veh, WIPF1 / RFU, LARP1B / Fold change vs veh, LARP1B / RFU, RASA1 / Fold change vs veh, RASA1 / RFU, RB1 / Fold change vs veh, RB1 / RFU, PPFIA1 / Fold change vs veh, PPFIA1 / RFU, MAT2A / Fold change vs veh, MAT2A / RFU, CCT5 / Fold change vs veh, CCT5 / RFU, WDR92 / Fold change vs veh, WDR92 / RFU, CUX1 / Fold change vs veh, CUX1 / RFU, TTC7A / Fold change vs veh, TTC7A / RFU, TMEM135 / Fold change vs veh, TMEM135 / RFU, DEPTOR / Fold change vs veh, DEPTOR / RFU, CPM / Fold change vs veh, CPM / RFU, DNAJB6 / Fold change vs veh, DNAJB6 / RFU, CACNA2D3 / Fold change vs veh, CACNA2D3 / RFU, DTX4 / Fold change vs veh, DTX4 / RFU, TFCP2 / Fold change vs veh, TFCP2 / RFU, GMCL1 /// GMCL1P1 / Fold change vs veh, GMCL1 /// GMCL1P1 / RFU, AEBP2 / Fold change vs veh, AEBP2 / RFU, SNHG1 /// SNORD22 /// SNORD25 /// SNORD26 /// SNORD27 /// SNORD28 /// SNORD29 /// SNORD31 / Fold change vs veh, SNHG1 /// SNORD22 /// SNORD25 /// SNORD26 /// SNORD27 /// SNORD28 /// SNORD29 /// SNORD31 / Fold change (Aza/veh), C12orf56 (ProbeSet 11735607_a_at) / Fold change (ACY-1035/veh), C12orf56 (ProbeSet 11735607_a_at) / Fold change (Aza/veh), FGFR1OP (ProbeSet 11751329_s_at) / Fold change (ACY-1035/veh), FGFR1OP (ProbeSet 11751329_s_at) / Fold change (Aza/veh), VPS36 (ProbeSet 11739960_a_at) / Fold change (ACY-1035/veh), VPS36 (ProbeSet 11739960_a_at) / RFU SYPL1 (11715823_x_at) / Fold change /veh SYPL1 (11715823_x_at) / RFU IGFBP7 (11715501_s_at) / Fold change /veh IGFBP7 (11715501_s_at) / RFU REEP3 (11722064_at) / Fold change /veh REEP3 (11722064_at) / RFU IGLL1 (11728026_x_at) / Fold change /veh IGLL1 (11728026_x_at): dose or concentration left out as unconfirmed
Settings: ProbeSet 11746640_a_at; LIST D

With `Nc1ncn([C@@H]2O[C@H](CO)[C@@H](O)[C@H]2O)c(=O)n1` [azacitidine] the “RFU, RASSF2” value was 35.94 RFU.

Source: PMC5218480 (PLoS ONE, 2017)
